For 26 compounds, IC50 results are on record in patent US20230146233A1, “A CLASS OF POLYCYCLIC COMPOUNDS INHIBITING RNA HELICASE DHX33 AND THE APPLICATION THEREOF” (Shenzhen KeYe Life Technologies, Co., Ltd, priority 2020, published 2023).

In the assay the test system is U251-MG cells. In words: Half-maximal cell-inhibitory concentration on U251-MG cells (CCK-8). The format is cell-based. The settings on record: Homo sapiens, U-251, U251-MG cells (DHX33-overexpressing cancer cell strain), 48 hours, read-out: IC50 (half-maximal inhibitory concentrations of compounds on U251-MG cells). The procedure: U251-MG cells were purchased from the cell bank of the Chinese Academy of Sciences. Cells were cultured in MEM medium containing 10% fetal bovine serum (FBS), 2 mM L-glutammie, streptomycmn and penicillin. The growth conditions were set as follows: a humidified cell incubator (37° C., 5% CO2). Cells were passaged every 3 days and were discarded after 10 passages.
U251-MG cells (a […]-overexpressing cancer cell strain) were seeded on a 96-well plate at 1×10^4 cells/100 μl/well. After the cells were completely attached, the compounds were added to the cell culture medium at a concentration of 5 nM, 10 nM, 25 nM, 50 nM, 100 nM, […], 500 nM, 1000 nM, 2000 nM, […] or 20 μM, and the resulting mixture was uniformly mixed with a multichannel pipette. After the cells were incubated with the compound for 48 hours, CCK-8 reagent (Yeasen Biotechnology (Shanghai) Co., Ltd.) was added to the medium in the 96-well plate in accordance with the standard procedure. After being incubated for 2 hours, the plate was read with a microplate reader (OD=450 nm). The experiment was repeated three times, the inhibition curve of the compound at different concentrations was plotted, and the half-maximal inhibitory concentration (IC50) of the compound was calculated.
`COc1cnc2[nH]c(/C(C#N)=C/c3cc(C)n(-c4sc(C)cc4C#N)c3C)nc2c1` [AB24333, (E)-2-(3-(2-cyano-2-(6-methoxy-3H-imidazo[4,5-b]pyridin-2-yl)vinyl)-2,5-dimethyl-1H-pyrrol-1-yl)-5-methylthiophene-3-carbonitrile]: the IC50 is < 100 nM. Turning to `COc1cc2nc(/C(C#N)=C/c3cnn(-c4sc(C)cc4C#N)c3C)[nH]c2cn1` [AB24334, (E)-2-(4-(2-cyano-2-(6-methoxy-3H-imidazo[4,5-c]pyridin-2-yl)vinyl)-5-methyl-1H-pyrazol-1-yl)-5-methylthiophene-3-carbonitrile], the IC50 was in the range of 100 to 1000 nM. For `COc1cc2nc(/C(C#N)=C/c3cc(C)n(-c4sc(-c5cccnc5)cc4C#N)c3C)[nH]c2cn1` [AB24337], the IC50 lay in the range of 1000 to 5000 nM. For `COc1cc2nc(/C(C#N)=C/c3cc(C)n(-c4sc(-c5ccncc5)cc4C#N)c3C)[nH]c2cn1` [AB24338], the IC50 lay in the range of 1000 to 5000 nM. Under `Cc1cc(C#N)c(-n2c(C)cc(/C=C(\C#N)c3nc4cc(Cl)ncc4[nH]3)c2C)s1` [AB24341, (E)-2-(3-(2-(6-chloro-3H-imidazo[4,5-c]pyridin-2-yl)-2-cyanovinyl)-2,5-dimethyl-1H-pyrrol-1-yl)-5-methylthiophene-3-carbonitrile] stands < 100 nM; under `COc1cc2cc(/C(C#N)=C/c3cc(C)n(-c4sc(C)cc4C#N)c3C)[nH]c2cn1` [AB24342, (Z)-2-(3-(2-cyano-2-(5-methoxy-1H-pyrrolo[2,3-c]pyridin-2-yl)vinyl)-2,5-dimethyl-1H-pyrrol-1-yl)-5-methylthiophene-3-carbonitrile], 100 to 1000 nM. With `COC(=O)c1nc(C)sc1-n1c(C)cc(/C=C(\C#N)c2nc3cc(OC)ncc3[nH]2)c1C` [AB24345], the IC50 is 100 to 1000 nM. Regarding `COc1cc2nc(/C(C#N)=C(\C)c3cc(C)n(-c4sc(C)cc4C#N)c3C)[nH]c2cn1` [AB24347, (E)-2-(3-(1-cyano-1-(6-methoxy-3H-imidazo[4,5-c]pyridin-2-yl)prop-1-en-2-yl)-2,5-dimethyl-1H-pyrrol-1-yl)-5-methylthiophene-3-carbonitrile], the IC50 was in the range of 100 to 1000 nM.

`COc1cc2nc(/C(C#N)=C/c3cc(C)n(-c4sc(C)nc4C#N)c3C)[nH]c2cn1` [AB24348, (E)-5-(3-(2-cyano-2-(6-methoxy-3H-imidazo[4,5-c]pyridin-2-yl)vinyl)-2,5-dimethyl-1H-pyrrol-1-yl)-2-methylthiazole-4-carbonitrile]: the IC50 is < 100 nM.

Regarding `COc1cc2nc(/C(C#N)=C/c3cc(C)n(-c4sc(Cl)cc4C#N)c3C)[nH]c2cn1` [AB24349], the IC50 is < 100 nM. Under `COc1cc2nc(/C(C#N)=C/c3cc(C)n(-c4sc(C)cc4C#N)c3C)n(C)c2cn1` [AB24352, (E)-2-(3-(2-cyano-2-(6-methoxy-3-methyl-3H-imidazo[4,5-c]pyridin-2-yl)vinyl)-2,5-dimethyl-1H-pyrrol-1-yl)-5-methylthiophene-3-carbonitrile] stands 100 to 1000 nM. Turning to `Cc1cc(C#N)c(-n2c(C)cc(/C=C(\C#N)c3nc4cc(N(C)C)ncc4[nH]3)c2C)s1` [AB24355, (E)-2-(3-(2-cyano-2-(6-(dimethylamino)-3H-imidazo[4,5-c]pyridin-2-yl)vinyl)-2,5-dimethyl-1H-pyrrol-1-yl)-5-methylthiophene-3-carbonitrile], the IC50 was < 100 nM.

In the case of `COc1ccc2c(c1)[nH]c1cc(-c3cc(C)n(-c4sc(C)cc4C#N)c3C)c(C)cc12` [AB24374, 2-(3-(7-methoxy-3-methyl-9H-carbazol-2-yl)-2,5-dimethyl-1H-pyrrol-1-yl)-5-methylthiophene-3-carbonitrile], the IC50 fell in the range of 5000 to 20000 nM. In the case of `COc1ccc2[nH]c3cc(-c4cc(C)n(-c5sc(C)cc5C#N)c4C)ccc3c2c1` [AB24375, 2-(3-(6-methoxy-9H-carbazol-2-yl)-2,5-dimethyl-1H-pyrrol-1-yl)-5-methylthiophene-3-carbonitrile], the IC50 lay in the range of 5000 to 20000 nM. Under `COc1ccc2nc3cc(-c4cc(C)n(-c5sc(C)cc5C#N)c4C)ccc3n2c1` [AB24385, 2-(3-(2-methoxybenzo[4,5]imidazo[1,2-a]pyridin-7-yl)-2,5-dimethyl-1H-pyrrol-1-yl)-5-methylthiophene-3-carbonitrile] stands 1000 to 5000 nM; under `COc1cc2nc(/C(C#N)=C/c3cc(C)n(Cc4ccco4)c3C)[nH]c2cn1` [AB24397, (E)-3-(1-(furan-2-ylmethyl)-2,5-dimethyl-1H-pyrrol-3-yl)-2-(6-methoxy-3H-imidazo[4,5-c]pyridin-2-yl)acrylonitrile], < 100 nM; under `COc1cc2nc(/C(C#N)=C/c3cc(C)n(Cc4ccccc4)c3C)[nH]c2cn1` [AB24398, (E)-3-(1-benzyl-2,5-dimethyl-1H-pyrrol-3-yl)-2-(6-methoxy-3H-imidazo[4,5-c]pyridin-2-yl)acrylonitrile], < 100 nM.

Regarding `COc1cc2nc(NC(=O)c3cc(C)n(-c4sc(C)nc4C#N)c3C)[nH]c2cn1` [AB29502, 1-(4-cyano-2-methylthiazol-5-yl)-N-(6-methoxy-3H-imidazo[4,5-c]pyridin-2-yl)-2,5-dimethyl-1H-pyrrole-3-carboxamide], the IC50 was 100 to 1000 nM. `COc1ccc2nc(NC(=O)c3cc(C)n(-c4sc(C)nc4C)c3C)[nH]c2c1` [AB29505, 1-(2,4-dimethylthiazol-5-yl)-N-(6-methoxy-1H-benzo[d]imidazol-2-yl)-2,5-dimethyl-1H-pyrrole-3-carboxamide]: the IC50 lay in the range of 100 to 1000 nM. With `COc1cc2nc(/C(C#N)=C/c3cc(C)n(Cc4ccccn4)c3C)[nH]c2cn1` [AB29507, (E)-3-(2,5-dimethyl-1-(pyridin-2-ylmethyl)-1H-pyrrol-3-yl)-2-(6-methoxy-3H-imidazo[4,5-c]pyridin-2-yl)acrylonitrile], the IC50 was < 100 nM. For `COc1cc2nc(/C(C#N)=C/c3cc(C)n(Cc4cnccn4)c3C)[nH]c2cn1` [AB29508, (E)-3-(2,5-dimethyl-1-(pyrazin-2-ylmethyl)-1H-pyrrol-3-yl)-2-(6-methoxy-3H-imidazo[4,5-c]pyridin-2-yl)acrylonitrile] the value was < 100 nM; for `COc1ccc2nc(NC(=O)c3cc(C)n(-c4sc(C)nc4C#N)c3C)[nH]c2c1` [AB29509, 1-(4-cyano-2-methylthiazol-5-yl)-N-(6-methoxy-1H-benzo[d]imidazol-2-yl)-2,5-dimethyl-1H-pyrrole-3-carboxamide], 100 to 1000 nM; for `COc1ccc2nc(NC(=O)c3cc(C)n(-c4oc(C)c(C)c4C#N)c3C)[nH]c2c1` [AB29510, 1-(3-cyano-4,5-dimethylfuran-2-yl)-N-(6-methoxy-1H-benzo[d]imidazol-2-yl)-2,5-dimethyl-1H-pyrrole-3-carboxamide], 100 to 1000 nM.

Take `COc1cc2nc(/C(C#N)=C/c3cc(C)n(Cc4ccncc4)c3C)[nH]c2cn1` [AB29512, (E)-3-(2,5-dimethyl-1-(pyridin-4-ylmethyl)-1H-pyrrol-3-yl)-2-(6-methoxy-3H-imidazo[4,5-c]pyridin-2-yl)acrylonitrile]: the IC50 is < 100 nM. As for `COc1ccc2nc(NC(=O)c3cc(C)n(Cc4cnn(C)c4)c3C)[nH]c2c1` [AB29513, N-(6-methoxy-1H-benzo[d]imidazol-2-yl)-2,5-dimethyl-1-((1-methyl-1H-pyrazol-4-yl)methyl)-1H-pyrrole-3-carboxamide], the IC50 fell in the range of 5000 to 20000 nM.

With `COC(=O)c1cc(Cl)sc1-n1c(C)cc(/C=C(\C#N)c2nc3cc(OC)ncc3[nH]2)c1C` [AR24318], the IC50 lay within 100 to 1000 nM.
